Values of other authors, collected in patent US20110159084A1, “RALOXIFENE PHARMACEUTICAL FORMULATIONS” (DR. REDDY'S LABORATORIES LTD., priority 2008, published 2011).

What was measured:
[1] = in vivo
[2] = 37° C.

Row | Molecule | absolute bioavailability [1] | intra-subject pharmacokinetic variability [1] | solubility in simulated gastric fluid (SGF) USP ([2]; SGF USP) [µg/mL] | solubility in simulated intestinal fluid (SIF) USP ([2]; SIF USP) [µg/mL]
1 | Raloxifene | 2% | approximately 30 % coefficient of variation | – | –
2 | Cl.O=C(c1ccc(OCCN2CCCCC2)cc1)c1c(-c2ccc(O)cc2)sc2cc(O)ccc12 [Raloxifene hydrochloride, methanone, [6-hydroxy-2-(4-hydroxyphenyl)benzo[b]thiene-3-yl]-[4-[2-(1-piperidinyl)ethoxy]phenyl]-, hydrochloride] | about 2% | – | 3 | 2
